One may read the inhibition as the change of the read-out against control, counted positive when it falls. One may read the IC50 as the point on the concentration scale where inhibition reaches its midpoint.

The source of these data is ChEMBL document CHEMBL5620367, “Discovery of new tetrahydroisoquinolines as potent and selective LSD1 inhibitors for the treatment of MLL-rearranged leukemia” (Eur J Med Chem, 2023).

Calls of active or inactive are those of the source. The rule behind the calls is not given here.

Data set [1] concerns the target T1, MAO-A (amine oxidase [flavin-containing] A) (Homo sapiens, UniProt P21397).
T1 sequence (P21397 whole entry): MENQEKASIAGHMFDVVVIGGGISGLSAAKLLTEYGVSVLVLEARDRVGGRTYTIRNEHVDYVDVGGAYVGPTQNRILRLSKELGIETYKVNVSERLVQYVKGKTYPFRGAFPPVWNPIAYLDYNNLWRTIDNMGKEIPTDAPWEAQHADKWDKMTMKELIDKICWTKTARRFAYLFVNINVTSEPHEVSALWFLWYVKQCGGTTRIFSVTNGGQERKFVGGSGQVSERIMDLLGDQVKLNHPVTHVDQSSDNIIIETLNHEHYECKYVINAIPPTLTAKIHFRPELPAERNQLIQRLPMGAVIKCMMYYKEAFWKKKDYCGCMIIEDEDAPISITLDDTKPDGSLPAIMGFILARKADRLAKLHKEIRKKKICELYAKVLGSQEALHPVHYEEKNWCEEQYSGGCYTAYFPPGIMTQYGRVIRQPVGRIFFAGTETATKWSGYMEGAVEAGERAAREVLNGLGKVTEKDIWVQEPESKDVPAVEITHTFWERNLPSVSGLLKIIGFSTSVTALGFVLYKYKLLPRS
The data set can be described thus: Inhibition of N-terminal FLAG-tagged recombinant human MAO-A expressed in baculovirus infected Sf9 cells upto 10 uM preincubated for 15 mins followed by addition of luciferin derivative substrate measured after 1 hr by Luciferase Glo assay relative to control. The following applies: probe luciferin derivative substrate, time 75 min.

Data set [2] deals with T2, MAO-B (amine oxidase [flavin-containing] B) (Homo sapiens, UniProt P27338).
T2 sequence (P27338 whole entry): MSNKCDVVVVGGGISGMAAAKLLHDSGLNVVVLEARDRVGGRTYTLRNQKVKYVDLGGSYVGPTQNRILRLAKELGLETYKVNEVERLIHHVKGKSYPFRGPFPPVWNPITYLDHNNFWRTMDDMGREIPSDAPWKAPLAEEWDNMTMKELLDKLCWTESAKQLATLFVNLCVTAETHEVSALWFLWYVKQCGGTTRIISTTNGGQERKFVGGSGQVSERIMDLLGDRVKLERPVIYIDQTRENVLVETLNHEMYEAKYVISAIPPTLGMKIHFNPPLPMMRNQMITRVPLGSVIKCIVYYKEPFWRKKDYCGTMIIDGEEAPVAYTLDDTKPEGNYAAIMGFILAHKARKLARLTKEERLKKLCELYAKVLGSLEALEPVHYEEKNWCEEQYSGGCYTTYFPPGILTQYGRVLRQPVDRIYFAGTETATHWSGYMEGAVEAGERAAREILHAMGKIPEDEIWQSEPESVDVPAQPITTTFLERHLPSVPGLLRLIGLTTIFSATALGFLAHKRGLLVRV
The data set can be described thus: Inhibition of N-terminal FLAG-tagged recombinant human MAO-B expressed in baculovirus infected Sf9 cells upto 10 uM preincubated for 15 mins followed by addition of luciferin derivative substrate measured after 1 hr by Luciferase Glo assay relative to control. As to conditions: probe luciferin derivative substrate, time 75 min.

Data set [3] deals with MOLM-13. The data set is described as follows: Cytotoxicity against human MOLM-13 cells incubated for 7 days by CCK8 assay. As to conditions: MOLM-13, 168 h.
The test system of data set [4] is MV4-11. The data set can be described thus: Cytotoxicity against human MV4-11 cells incubated for 7 days by CCK8 assay. As to conditions: MV4-11, 168 h. A general note: Tetrazolium assays rely on reduction of a dye to a coloured formazan, in cell work by metabolically active cells.
Data set [5] relates to MOLM-13. The data set is described as follows: Anti-cancer activity against human MOLM-13 cells assessed as reduction in HoxA9 mRNA level upto 100 uM by qRT-PCR analysis relative to control. In kind it is functional. Also on record: scale not given: the % may be the effect or the level left. The following applies: up to 100 µM. (In general: Quantitative PCR measures a nucleic acid by following its amplification.)

Data set [6] concerns MOLM-13. The data set is described as follows: Induction of cell differentiation in human MOLM-13 cells assessed as CD11b level at 30 uM incubated for 3 days by Annexin V staining based flow cytometry (reference value: 13.77 %). In kind it is functional. The following applies: time 3 day.
The test system of data set [7] is MOLM-13. The data set is described as follows: Induction of cell differentiation in human MOLM-13 cells assessed as CD11b level at 100 uM incubated for 3 days by Annexin V staining based flow cytometry (reference value: 13.77 %). The following applies: time 3 day. In kind it is functional.
Data set [8] relates to MV4-11. The data set is described as follows: Induction of cell differentiation in human MV4-11 cells assessed as CD11b level at 100 uM incubated for 3 days by Annexin V staining based flow cytometry (reference value: 8.58 %). Type of data set: functional. The following applies: time 3 day. In general terms: A flow cytometer gives signals particle by particle.
The test system of data set [9] is MOLM-13. The data set is described as follows: Induction of cell differentiation in human MOLM-13 cells assessed as increase in CD14 level upto 100 uM incubated for 3 days by Annexin V staining based flow cytometry. As to conditions: time 3.0 day. Type of data set: functional.
In data set [10] the test system is MV4-11. The data set can be described thus: Induction of cell differentiation in human MV4-11 cells assessed as increase in CD14 level upto 100 uM incubated for 3 days by Annexin V staining based flow cytometry. Type of data set: functional. As to conditions: time 3.0 day.
Data set [11] deals with MOLM-13. The data set can be described thus: Induction of apoptosis in human MOLM-13 cells assessed as necrotic cells at 10 uM incubated for 3 days by Annexin V staining based flow cytometry (reference value: 1.23 %). In kind it is functional. The following applies: time 3 day.
Data set [12] relates to MOLM-13. The data set is described as follows: Induction of apoptosis in human MOLM-13 cells assessed as late apoptotic cells at 30 uM incubated for 3 days by Annexin V staining based flow cytometry (reference value: 3.29 %). In kind it is functional. The following applies: time 3 day.
Data set [13] relates to MOLM-13. The data set is described as follows: Induction of apoptosis in human MOLM-13 cells assessed as late apoptotic cells at 100 uM incubated for 3 days by Annexin V staining based flow cytometry (reference value: 3.29 %). In kind it is functional. The following applies: time 3 day.
For data set [14], the system named is MV4-11. The data set is described as follows: Induction of apoptosis in human MV4-11 cells assessed as early apoptotic cells at 10 uM incubated for 3 days by Annexin V staining based flow cytometry (reference value: […] %). In kind it is functional. The following applies: time 3 day.
Data set [15] has as its system MV4-11. The data set can be described thus: Induction of apoptosis in human MV4-11 cells assessed as early apoptotic cells at 30 uM incubated for 3 days by Annexin V staining based flow cytometry (reference value: […] %). In kind it is functional. The following applies: time 3 day.
Data set [16] has as its system MV4-11. The data set is described as follows: Induction of apoptosis in human MV4-11 cells assessed as late apoptotic cells at 30 uM incubated for 3 days by Annexin V staining based flow cytometry (reference value: 7.29 %). Type of data set: functional. The following applies: time 3 day.
The subject of data set [17] is MV4-11. The data set is described as follows: Induction of apoptosis in human MV4-11 cells assessed as viable cells at 100 uM incubated for 3 days by Annexin V staining based flow cytometry (reference value: 89.63 %). In kind it is functional. As to conditions: MV4-11, 72 h, time 3 day, read-out: Activity.
For data set [18], the system named is MV4-11. The data set is described as follows: Induction of apoptosis in human MV4-11 cells assessed as increase in p53 level upto 100 uM incubated for 3 days by Western blot analysis. As to conditions: time 3.0 day. In kind it is functional, cell-based.
Data set [19] deals with MV4-11. The data set can be described thus: Antitumor activity against human MV4-11 cells xenografted in NOD-SCID mouse assessed as increase in RBC at 50 to 78.7 mg/kg, sc measured after 33 days. In kind it is functional, organism-based. As to conditions: dose 50-78.7 mg/kg, time 33.0 day.
Data set [20] has as its system MV4-11. The data set can be described thus: Antitumor activity against human MV4-11 cells xenografted in NOD-SCID mouse assessed as increase in hemoglobin level at 50 to 78.7 mg/kg, sc measured after 33 days. In kind it is functional, organism-based. As to conditions: dose 50-78.7 mg/kg, time 33.0 day.
In data set [21] the test system is MV4-11. The data set is described as follows: Antitumor activity against human MV4-11 cells xenografted in NOD-SCID mouse assessed as decrease in leukemic cells in blood at 78.7 mg/kg, sc measured after 33 days relative to control. In kind it is functional. Further details: scale not given: the % may be the effect or the level left. The following applies: time 33 day.

Data set [22] in a line: Toxicity in NOD-SCID mouse xenografted with human MV4-11 cells assessed as change in fur morphology at 50 to 78.7 mg/kg, sc measured after 33 days. The following applies: in vivo, 792 h, dose 50-78.7 mg/kg, time 33 day. Type of data set: organism-based.

As to `O=C(O)C(F)(F)F.O=[N+]([O-])c1ccc(C2NCCc3cc(O)c(O)cc32)cc1` (configuration not stated), the inhibition at 1 h, up to 10 µM in data set [1] and in data set [2] was < 30% in each case. The IC50 in the data set with MOLM-13 [3] is 83 µM; with MV4-11 [4], 42 µM. Further, the Activity is given as ~70% in the data set with MOLM-13 [5]; 90.6% in the data set on MOLM-13 [6]; 93.75% with MOLM-13 [7]; 69.19% in the data set on MV4-11 [8]; 6.32% in the data set with MOLM-13 [11]; 15.99% with MOLM-13 [12]. Moreover, the Activity in the data set with MOLM-13 [13] is listed as 18.07%; with MV4-11 [14] it was 7.06%; in the data set on MV4-11 [15] it was 7.75%; in the data set with MV4-11 [16], 28.14%; in the data set on MV4-11 [21] it was 81%; in data set [22] it was “Toxic”. For the same molecule, the outcome with MOLM-13 [9], in the data set on MV4-11 [10], in the data set on MV4-11 [18], in the data set on MV4-11 [19] and in the data set with MV4-11 [20] was Active. Moreover, the viability at 100 µM with MV4-11 [17] is 49.9%.
